Entries after “also recorded” stand apart in the source; their conditions may differ.
How the values were obtained:
[1] = target: T1, telomerase (Rattus norvegicus, UniProt Q673L6); assay: TRAP assay of telomerase activity in granulosa cells; format: cell-based; conditions: 50 nM and 200 nM for 6 hours
T1 construct: Protein extracts prepared from these cells served for telomerase activity measurement; endogenous in cells; host or cells: immortalized rat granulosa cells expressing FSH receptor
Description: (§1) Immortalized rat granulosa cells expressing FSH receptor were treated with either pregnant mare serum gonadotropin (PMSG), or the indicated compounds, or both for 6 hours. Protein extracts prepared from these cells served for telomerase activity measurement using a telomere repeat amplification protocol (TRAP) assay.
(§2) Briefly, protein extract incubated with oligonucleotide, which serves as a template for telomerase (TS), for 45 minutes at 30° C. followed by PCR with reverse primer (ACX) and internal control. PCR products were separated on 4.5% agarose gel. RNA extracts were used for cDNA synthesis and quantitative real time PCR with specific primers to Telomerase reverse transcriptase (TERT), Steroidogenic acute regulatory protein (StAr) and β-actin as a reference gene. To measure progesterone levels secreted by the cells, granulosa cells were cultured with or without 1 IU/mL PMSG and DMSO, Compound 79 50 nM or compound 70 50 nM in the presence of 100 nM dexamethasone. After 24 hours progesterone levels cell-culture medium were determined by radioimmunoassay (RIA). For cell proliferation measurement, 1×10^5 cells were seeded in a 96 wells plate with 1 IU/mL PMSG and DMSO, Compound 79 50 nM or Compound 70 50 nM. After 24 hours cells viability was measured by XTT proliferation assay.

[2] = tested on: Telomerase reverse transcriptase (TERT); assay: TERT relative mRNA levels by qRT-PCR in granulosa cells; format: cell-based, rat; conditions: 50 nM and 200 nM for 6 hours
Description: as §1, §2

[3] = tested on: Steroidogenic acute regulatory protein (StAr); assay: StAr relative mRNA levels by qRT-PCR in granulosa cells; format: cell-based, rat; conditions: 50 nM for 6 hours
Description: as §1, §2

[4] = tested on: mouse ovary; assay: Hematoxylin-eosin histology of mouse ovary; format: in vivo
Source text: The ovaries were weighted; one was taken for protein extraction for measuring telomerase activity by TRAP assay, and the other one for the histological examination using hematoxylin-eosin staining of the ovary and its follicles.
The mice ovaries were removed and fixed with 4% paraformaldehyde overnight, dehydrated in increasing ethanol concentrations to xylene, and embedded in paraffin. A rotary microtome was used to produce 5 μm sections, which were mounted on Superfrost plus slides. The sections were dried and heated at 37° C. overnight and stored in dry place. Paraffin-embedded sections were deparaffinized in xylene and rehydrated in decreasing concentrations of ethanol. Then the sections stained with hematoxylin-eosin or subjected to immunochemical and Immunofluorescent assays [Liani-Leibson, K., I. Har-Vardi, and E. Priel, Inhibition of topoisomerase I by anti-cancer drug altered the endometrial cyclicity and receptivity. Curr Mol Med, 2014. 14(1): p. 141-50].

[5] = tested on: CREM; assay: CREM expression in X-ray irradiated testis; format: in vivo, mouse; conditions: X-ray 2.5 Gy then injection, 12 hrs
Description: (§3) Toward this end, ICR mice (3 months old) were injected with 6 mg/kg of Compound 79, Compound 68 or Compound 70, or mice were subjected to X-ray radiation (2.5 Gy) followed by immediately injection of the respective compounds. Control mice were untreated or vehicle treated with or without exposure to X-ray radiation. The testes were removed 12 hrs after treatments and subjected to protein extracts or total RNA preparations for the examination of telomerase activity by TRAP assay, telomerase expression by Western blot and real time PCR. Testes were also taken for immunohistochemical and immunofluorescence analysis with various spermatogenesis markers. Epididymis was also taken for sperm count.

[6] = tested on: γ-H2AX; assay: γ-H2AX immunofluorescence of testis; format: in vivo, mouse; conditions: 12 hrs
Description: as §3

[7] = tested on: ICR mice; assay: Sperm count from the epididymis, with or without X-ray radiation; format: in vivo, mouse
Description: as §3, with “The testes were removed 12 hrs after treatments and subjected to protein extracts or total RNA preparations for the examination of telomerase activity by TRAP assay, telomerase expression by Western blot and real time PCR.” left out

[8] = tested on: sperm; assay: Sperm head morphology after X-ray radiation; format: in vivo, mouse; conditions: X-ray 2.5 Gy, single S.C. injection 6 mg/kg, 12 hours
Description: Three-month old mice were irradiated with X-ray (2.5 Gy) and treated with a single S.C. injection of 6 mg/kg of compound 68 or 70. Mice were sacrificed 12 hours later and sperm were removed from the epididymis and stained with eosin. The number of morphologically defective sperm (head morphology) were quantified and presented as a percentage value of the total sperm count (N=6 mice per group) (FIG. 26A). FIG. 26B provides a light micrograph showing healthy and defective sperm head morphology observed. The arrows labeled 1 and 2 point to defective sperm head morphology, and the arrows labeled 3 and 4 point to healthy sperm head morphology

[9] = tested on: old mice (16 months old); assay: Sperm count and motility in old mice; format: in vivo, mouse; conditions: single injection 6 mg/Kg
[10] = tested on: ovarian tissue; assay: Ovarian tissue histopathology following irradiation; format: in vivo; conditions: treatment following X-ray irradiation
Source text: FIGS. 28A, 28B and 28C: Ovarian tissue histopathology following irradiation (FIG. 28A), followed by treatment with Compound 70 (FIG. 28C) or DMSO carrier (FIG. 28B).

[11] = tested on: LH; assay: LH expression by RT-PCR in pituitary gland cells; format: cell-based, mouse; conditions: 50 nM, 12 hours, vs untreated
Description: (§4) FIGS. 29A, 29B, 29C and 29D: The embodied compounds affect the expression of gonadotropin hormones in pituitary gland cells. Cells (L T2) derived from the mouse pituitary gland were assessed for their secretion of LH and FSH at 6 (FIGS. 29A and 29B) and 12 hours (FIGS. 29C and 29D) following treatment with the indicated embodied compounds (50 nM). FSH and LH expression was determined by RT-PCR, and quantified from 5 different experiments, as assessed for significance, using the t test, one way ANOVA.

[12] = tested on: FSH; assay: FSH expression by RT-PCR in pituitary gland cells; format: cell-based, mouse; conditions: 50 nM, 6 hours, vs untreated
Description: as §4

T1 sequence (Q673L6 whole entry): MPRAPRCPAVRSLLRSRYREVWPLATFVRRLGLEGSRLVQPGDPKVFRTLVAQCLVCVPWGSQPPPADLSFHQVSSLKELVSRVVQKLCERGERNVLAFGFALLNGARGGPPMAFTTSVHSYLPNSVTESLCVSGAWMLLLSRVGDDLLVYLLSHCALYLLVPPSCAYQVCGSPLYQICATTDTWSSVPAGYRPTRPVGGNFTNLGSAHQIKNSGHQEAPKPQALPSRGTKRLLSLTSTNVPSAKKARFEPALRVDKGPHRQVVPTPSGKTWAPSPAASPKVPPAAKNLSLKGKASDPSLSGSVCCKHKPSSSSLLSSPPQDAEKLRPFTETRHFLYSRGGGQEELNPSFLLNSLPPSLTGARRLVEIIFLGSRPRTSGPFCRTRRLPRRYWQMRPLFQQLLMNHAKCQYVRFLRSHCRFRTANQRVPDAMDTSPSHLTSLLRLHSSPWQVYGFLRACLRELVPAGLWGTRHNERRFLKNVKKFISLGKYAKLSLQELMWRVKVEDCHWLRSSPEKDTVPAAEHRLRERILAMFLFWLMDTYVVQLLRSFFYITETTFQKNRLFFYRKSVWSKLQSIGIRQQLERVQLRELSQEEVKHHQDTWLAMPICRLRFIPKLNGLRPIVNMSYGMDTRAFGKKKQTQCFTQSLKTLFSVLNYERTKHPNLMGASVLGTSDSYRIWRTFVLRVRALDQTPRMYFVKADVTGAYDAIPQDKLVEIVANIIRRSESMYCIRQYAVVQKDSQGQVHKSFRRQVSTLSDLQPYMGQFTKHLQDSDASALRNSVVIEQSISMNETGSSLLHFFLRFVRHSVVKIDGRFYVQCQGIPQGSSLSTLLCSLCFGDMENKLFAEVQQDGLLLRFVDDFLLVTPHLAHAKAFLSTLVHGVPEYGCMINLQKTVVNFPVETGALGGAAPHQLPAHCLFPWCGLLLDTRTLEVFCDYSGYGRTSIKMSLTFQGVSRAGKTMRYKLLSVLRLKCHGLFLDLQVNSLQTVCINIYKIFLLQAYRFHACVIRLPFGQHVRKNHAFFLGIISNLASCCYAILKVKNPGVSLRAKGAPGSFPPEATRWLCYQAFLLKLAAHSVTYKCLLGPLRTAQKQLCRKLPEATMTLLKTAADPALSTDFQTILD

COc1c(Br)cc(C(C)(c2cc(Br)c(OC)c(Br)c2)c2cc(Br)c(OC)c(Br)c2)cc1Br [Compound 70]
telomerase activity (TRAP) [1]: increased expression in a dose-dependent fashion; also recorded: further increased telomerase activity and expression in granulosa cells as compared to compound 79 | TERT relative mRNA levels [2]: increased expression in a dose-dependent fashion | expression of StAr [3]: increased expression of StAr | ovary histology (follicles, granulosa cells) ([4]; 6 mg/Kg single dose at met-estrus stage, 12 hours): more developed follicles (white arrow) and plurality of layers of granulosa cells (GC) around the oocytes | ovary histology (corpus luteum) ([4]; 6 mg/Kg single dose at pro-estrus and estrus stages, 12 hrs): more corpus luteum (CL) than in the control group | CREM expression in testis [5]: restored the expression of the spermatogenesis markers | DNA damage (γ-H2AX) in testis ([6]; compound only, without irradiation): did not cause DNA damage | expression levels of γ-H2AX in testis ([6]; irradiated mice (2.5 Gy)): a decrease in the expression levels of γ-H2AX | sperm count ([7]; irradiated mice, 9 and 30 days post irradiation): increased sperm count at 9 and 30 days post irradiation | sperm cells number from the epididymis ([7]; non-irradiated mice, 12 hrs post treatment, compared to DMSO): a significant increase | number of defective sperm cells (head morphology) [8]: reduction in the number of defective sperm cells | sperm counts [9]: increased | sperm motility [9]: increased | ovarian tissue histopathology (H&E) [10]: clearly rescues ovarian tissue exposed to radiation | LH expression [11]: increased LH production above untreated levels | FSH expression [12]: decreased FSH expression relative to untreated samples
